Results published in ChEMBL document CHEMBL3525983, “Pharmacokinetics, metabolism, and disposition of rivoglitazone, a novel peroxisome proliferator-activated receptor γ agonist, in rats and monkeys” (Drug Metab Dispos, 2011).

Experiments:
[1] = Drug excretion in F344/DuCrlCrlj rat feces assessed as unchanged compound at 1 mg/kg, po administered via gavage measured during 0 to 48 hrs by radio-HPLC analysis; type: ADME, organism-based; design: dose 1 mg/kg, dosed compound name [14C]Rivoglitazone, route oral; conditions: read-out: Compound recovery
[2] = Drug excretion in F344/DuCrlCrlj rat urine/feces assessed as unchanged compound at 1 mg/kg, po administered via gavage measured during 0 to 48 hrs by radio-HPLC analysis; type: ADME, organism-based; design: dose 1 mg/kg, dosed compound name [14C]Rivoglitazone, route oral; conditions: urine and feces, read-out: Compound recovery
[3] = Drug excretion in bile duct-cannulated rat feces assessed as unchanged compound level administered through intravenous by radio-HPLC analysis; type: ADME; design: dosed compound name [14C]Rivoglitazone; conditions: read-out: Compound recovery
[4] = Drug excretion in bile duct-cannulated rat feces assessed as unchanged compound level administered through oral dose by radio-HPLC analysis; type: ADME; design: dosed compound name [14C]Rivoglitazone; conditions: read-out: Compound recovery
[5] = AUC (0 to t) in monkey at 0.493 mg/kg, po administered via gavage by LC-MS/MS analysis; type: ADME, organism-based, Macaca mulatta; design: dose 0.493 mg/kg, dosed compound name [14C]Rivoglitazone, route oral; conditions: rhesus monkey, plasma
[6] = AUC (0 to infinity) in monkey at 0.493 mg/kg, po administered via gavage by LC-MS/MS analysis; type: ADME, organism-based, Macaca mulatta; design: time infinity, dose 0.493 mg/kg, dosed compound name [14C]Rivoglitazone, route oral; conditions: rhesus monkey, plasma
[7] = Tmax in monkey at 0.493 mg/kg, po administered via gavage by LC-MS/MS analysis; type: ADME, organism-based, Macaca mulatta; design: dose 0.493 mg/kg, dosed compound name [14C]Rivoglitazone, route oral; conditions: rhesus monkey, in vivo
[8] = Oral bioavailability in monkey at 0.493 mg/kg administered via gavage by LC-MS/MS analysis; type: ADME, organism-based, Macaca mulatta; design: dosed compound name [14C]Rivoglitazone; conditions: rhesus monkey, in vivo
[9] = AUC (0 to infinity) in monkey at 0.986 mg/kg, po administered via gavage by LC-MS/MS analysis; type: ADME, organism-based, Macaca mulatta; design: time infinity, dose 0.986 mg/kg, dosed compound name [14C]Rivoglitazone, route oral; conditions: rhesus monkey, plasma
[10] = Cmax in monkey at 0.986 mg/kg, po administered via gavage by LC-MS/MS analysis; type: ADME, organism-based, Macaca mulatta; design: dose 0.986 mg/kg, dosed compound name [14C]Rivoglitazone, route oral; conditions: rhesus monkey, in vivo
[11] = Tmax in monkey at 0.986 mg/kg, po administered via gavage by LC-MS/MS analysis; type: ADME, organism-based, Macaca mulatta; design: dose 0.986 mg/kg, dosed compound name [14C]Rivoglitazone, route oral; conditions: rhesus monkey, in vivo
[12] = Apparent total clearance in monkey at 0.986 mg/kg, po administered via gavage by LC-MS/MS analysis; type: ADME, organism-based, Macaca mulatta; design: dose 0.986 mg/kg, dosed compound name [14C]Rivoglitazone, route oral; conditions: rhesus monkey, in vivo, read-out: CLt/F
[13] = Oral bioavailability in monkey at 0.986 mg/kg administered via gavage by LC-MS/MS analysis; type: ADME, organism-based, Macaca mulatta; design: dosed compound name [14C]Rivoglitazone; conditions: rhesus monkey, in vivo
[14] = Terminal elimination half life in monkey at 0.986 mg/kg, iv administered via tail vein by LC-MS/MS analysis; type: ADME, organism-based, Macaca mulatta; design: dose 0.986 mg/kg, dosed compound name [14C]Rivoglitazone, route intravenous; conditions: rhesus monkey, in vivo, read-out: beta t1/2 (converted)
[15] = AUC (0 to infinity) in F344/DuCrlCrlj rat at 0.1 mg/kg, po administered via gavage by LC-MS/MS analysis; type: ADME, organism-based; design: time infinity, dose 0.1 mg/kg, dosed compound name [14C]Rivoglitazone, route oral; conditions: plasma
[16] = Cmax in F344/DuCrlCrlj rat at 0.1 mg/kg, po administered via gavage by LC-MS/MS analysis; type: ADME, organism-based; design: dose 0.1 mg/kg, dosed compound name [14C]Rivoglitazone, route oral; conditions: in vivo
[17] = Apparent total clearance in F344/DuCrlCrlj rat at 0.1 mg/kg, po administered via gavage by LC-MS/MS analysis; type: ADME, organism-based; design: dose 0.1 mg/kg, dosed compound name [14C]Rivoglitazone, route oral; conditions: in vivo, read-out: CLt/F
[18] = AUC (0 to t) in F344/DuCrlCrlj rat at 0.5 mg/kg, po administered via gavage by LC-MS/MS analysis; type: ADME, organism-based; design: dose 0.5 mg/kg, dosed compound name [14C]Rivoglitazone, route oral; conditions: plasma
[19] = AUC (0 to infinity) in F344/DuCrlCrlj rat at 0.5 mg/kg, po administered via gavage by LC-MS/MS analysis; type: ADME, organism-based; design: time infinity, dose 0.5 mg/kg, dosed compound name [14C]Rivoglitazone, route oral; conditions: plasma
[20] = Tmax in F344/DuCrlCrlj rat at 0.5 mg/kg, po administered via gavage by LC-MS/MS analysis; type: ADME, organism-based; design: dose 0.5 mg/kg, dosed compound name [14C]Rivoglitazone, route oral; conditions: in vivo
[21] = Apparent total clearance in F344/DuCrlCrlj rat at 0.5 mg/kg, po administered via gavage by LC-MS/MS analysis; type: ADME, organism-based; design: dose 0.5 mg/kg, dosed compound name [14C]Rivoglitazone, route oral; conditions: in vivo, read-out: CLt/F
[22] = Oral bioavailability in F344/DuCrlCrlj rat at 0.5 mg/kg administered via gavage by LC-MS/MS analysis; type: ADME, organism-based; design: dosed compound name [14C]Rivoglitazone; conditions: in vivo
[23] = AUC (0 to t) in F344/DuCrlCrlj rat at 1 mg/kg, po administered via gavage by LC-MS/MS analysis; type: ADME, organism-based; design: dose 1 mg/kg, dosed compound name [14C]Rivoglitazone, route oral; conditions: plasma
[24] = AUC (0 to infinity) in F344/DuCrlCrlj rat at 1 mg/kg, po administered via gavage by LC-MS/MS analysis; type: ADME, organism-based; design: time infinity, dose 1 mg/kg, dosed compound name [14C]Rivoglitazone, route oral; conditions: plasma
[25] = Tmax in F344/DuCrlCrlj rat at 1 mg/kg, po administered via gavage by LC-MS/MS analysis; type: ADME, organism-based; design: dose 1 mg/kg, dosed compound name [14C]Rivoglitazone, route oral; conditions: in vivo
[26] = Terminal elimination half life in F344/DuCrlCrlj rat at 1 mg/kg, po administered via gavage by LC-MS/MS analysis; type: ADME, organism-based; design: dose 1 mg/kg, dosed compound name [14C]Rivoglitazone, route oral; conditions: in vivo, read-out: beta t1/2 (converted)
[27] = Apparent total clearance in F344/DuCrlCrlj rat at 1 mg/kg, po administered via gavage by LC-MS/MS analysis; type: ADME, organism-based; design: dose 1 mg/kg, dosed compound name [14C]Rivoglitazone, route oral; conditions: in vivo, read-out: CLt/F
[28] = AUC (0 to infinity) in monkey at 0.0986 mg/kg, po administered via gavage by LC-MS/MS analysis; type: ADME, organism-based, Macaca mulatta; design: time infinity, dose 0.0986 mg/kg, dosed compound name [14C]Rivoglitazone, route oral; conditions: rhesus monkey, plasma
[29] = Tmax in monkey at 0.0986 mg/kg, po administered via gavage by LC-MS/MS analysis; type: ADME, organism-based, Macaca mulatta; design: dose 0.0986 mg/kg, dosed compound name [14C]Rivoglitazone, route oral; conditions: rhesus monkey, in vivo
[30] = Volume of distribution at steady state in monkey at 0.493 mg/kg, iv administered via tail vein by LC-MS/MS analysis; type: ADME, organism-based, Macaca mulatta; design: dose 0.493 mg/kg, dosed compound name [14C]Rivoglitazone, route intravenous; conditions: rhesus monkey, in vivo, read-out: Vdss
[31] = Terminal elimination half life in monkey at 0.493 mg/kg, iv administered via tail vein by LC-MS/MS analysis; type: ADME, organism-based, Macaca mulatta; design: dose 0.493 mg/kg, dosed compound name [14C]Rivoglitazone, route intravenous; conditions: rhesus monkey, in vivo, read-out: beta t1/2 (converted)
[32] = AUC (0 to t) in monkey at 0.986 mg/kg, iv administered via tail vein by LC-MS/MS analysis; type: ADME, organism-based, Macaca mulatta; design: dose 0.986 mg/kg, dosed compound name [14C]Rivoglitazone, route intravenous; conditions: rhesus monkey, plasma
[33] = AUC (0 to infinity) in monkey at 0.986 mg/kg, iv administered via tail vein by LC-MS/MS analysis; type: ADME, organism-based, Macaca mulatta; design: time infinity, dose 0.986 mg/kg, dosed compound name [14C]Rivoglitazone, route intravenous; conditions: rhesus monkey, plasma
[34] = Total clearance in monkey at 0.986 mg/kg, iv administered via tail vein by LC-MS/MS analysis; type: ADME, organism-based, Macaca mulatta; design: dose 0.986 mg/kg, dosed compound name [14C]Rivoglitazone, route intravenous; conditions: rhesus monkey, in vivo
[35] = Volume of distribution at steady state in F344/DuCrlCrlj rat at 0.1 mg/kg, iv administered via tail vein by LC-MS/MS analysis; type: ADME, organism-based; design: dose 0.1 mg/kg, dosed compound name [14C]Rivoglitazone, route intravenous; conditions: in vivo, read-out: Vdss
[36] = Terminal elimination half life in F344/DuCrlCrlj rat at 0.1 mg/kg, iv administered via tail vein by LC-MS/MS analysis; type: ADME, organism-based; design: dose 0.1 mg/kg, dosed compound name [14C]Rivoglitazone, route intravenous; conditions: in vivo, read-out: beta t1/2 (converted)
[37] = AUC (0 to t) in F344/DuCrlCrlj rat at 0.5 mg/kg, iv administered via tail vein by LC-MS/MS analysis; type: ADME, organism-based; design: dose 0.5 mg/kg, dosed compound name [14C]Rivoglitazone, route intravenous; conditions: plasma
[38] = AUC (0 to infinity) in F344/DuCrlCrlj rat at 0.5 mg/kg, iv administered via tail vein by LC-MS/MS analysis; type: ADME, organism-based; design: time infinity, dose 0.5 mg/kg, dosed compound name [14C]Rivoglitazone, route intravenous; conditions: plasma
[39] = Volume of distribution at steady state in F344/DuCrlCrlj rat at 0.5 mg/kg, iv administered via tail vein by LC-MS/MS analysis; type: ADME, organism-based; design: dose 0.5 mg/kg, dosed compound name [14C]Rivoglitazone, route intravenous; conditions: in vivo, read-out: Vdss
[40] = Terminal elimination half life in F344/DuCrlCrlj rat at 0.5 mg/kg, iv administered via tail vein by LC-MS/MS analysis; type: ADME, organism-based; design: dose 0.5 mg/kg, dosed compound name [14C]Rivoglitazone, route intravenous; conditions: in vivo, read-out: beta t1/2 (converted)
[41] = Total clearance in monkey at 0.0986 mg/kg, iv administered via tail vein by LC-MS/MS analysis; type: ADME, organism-based, Macaca mulatta; design: dose 0.0986 mg/kg, dosed compound name [14C]Rivoglitazone, route intravenous; conditions: rhesus monkey, in vivo
[42] = Terminal elimination half life in monkey at 0.0986 mg/kg, iv administered via tail vein by LC-MS/MS analysis; type: ADME, organism-based, Macaca mulatta; design: dose 0.0986 mg/kg, dosed compound name [14C]Rivoglitazone, route intravenous; conditions: rhesus monkey, in vivo, read-out: beta t1/2 (converted)
[43] = Retention time of the compound by LC-MS/MS analysis; type: physicochemical; design: dosed compound name [14C]Rivoglitazone

COc1ccc2nc(COc3ccc(CC4SC(=O)NC4=O)cc3)n(C)c2c1.Cl (racemic)
dose excreted [1]: 23.7%
dose excreted [2]: 23.7%
dose excreted [3]: 2.3%
dose excreted [4]: 12.6%
AUC(0-t) [5]: 17200 ng·h/mL
AUC(0-inf) [6]: 17700 ng·h/mL
Tmax [7]: 4.25 h
bioavailability [8]: 90.4%
AUC(0-inf) [9]: 43100 ng·h/mL
Cmax [10]: 2930 ng/mL
Tmax [11]: 3.5 h
CL/F [12]: 0.41 mL/min/kg
bioavailability [13]: 76.1%
half-life [14]: 6.79 h
AUC(0-inf) [15]: 4450 ng·h/mL
Cmax [16]: 409 ng/mL
CL/F [17]: 0.354 mL/min/kg
AUC(0-t) [18]: 21000 ng·h/mL
AUC(0-inf) [19]: 21800 ng·h/mL
Tmax [20]: 1.13 h
CL/F [21]: 0.352 mL/min/kg
bioavailability [22]: 95%
AUC(0-t) [23]: 48500 ng·h/mL
AUC(0-inf) [24]: 49800 ng·h/mL
Tmax [25]: 2.25 h
half-life [26]: 4.5 h
CL/F [27]: 0.304 mL/min/kg
AUC(0-inf) [28]: 4470 ng·h/mL
Tmax [29]: 3 h
Vd [30]: 0.155 L/kg
half-life [31]: 6.21 h
AUC(0-t) [32]: 51700 ng·h/mL
AUC(0-inf) [33]: 57200 ng·h/mL
clearance [34]: 0.31 mL/min/kg
Vd [35]: 0.125 L/kg
half-life [36]: 4.55 h
AUC(0-t) [37]: 22300 ng·h/mL
AUC(0-inf) [38]: 22900 ng·h/mL
Vd [39]: 0.131 L/kg
half-life [40]: 4.84 h
clearance [41]: 0.312 mL/min/kg
half-life [42]: 6.38 h
Retention_time [43]: 23 min
